Measured values taken from ChEMBL document CHEMBL5390276, “Discovery of Unusual Sesterterpenoids from Colquhounia coccinea var. mollis and Their Metabolic Implications” (2023).

Experiments:
Type in all cases: functional
RAW264.7 [1] = test: Immunosuppressive activity in LPS-treated mouse RAW264.7 cells assessed as inhibition of IL-6 level at 20 uM incubated for 24 hrs by ELISA analysis relative to control
[2] = Immunosuppressive activity in anti-CD3/CD28 stimulated C57BL/6 mouse T cell line assessed as inhibition of IFN-gamma level at 20 uM incubated for 48 hrs by ELISA analysis relative to control; conditions: C57BL/6, T-cell
RAW264.7 [3] = test: Immunosuppressive activity in LPS-treated mouse RAW264.7 cells assessed as inhibition of MCP-1 level at 40 uM incubated for 24 hrs by ELISA analysis relative to control
RAW264.7 [4] = test: Immunosuppressive activity in LPS-treated mouse RAW264.7 cells assessed as inhibition of TNF-alpha level at 40 uM incubated for 24 hrs by ELISA analysis relative to control
RAW264.7 [5] = test: Immunosuppressive activity in LPS-treated mouse RAW264.7 cells assessed as inhibition of IL-6 level at 40 uM incubated for 24 hrs by ELISA analysis relative to control
Jurkat [6] = test: Immunosuppressive activity in PMA and PHA activated human Jurkat cells assessed as inhibition of IL-2 level at 40 uM incubated for 48 hrs by ELISA analysis relative to control
Jurkat [7] = test: Immunosuppressive activity in PMA and PHA activated human Jurkat cells assessed as inhibition of IL-2 level at 20 uM incubated for 48 hrs by ELISA analysis relative to control
[8] = Immunosuppressive activity in anti-CD3/CD28 stimulated C57BL/6 mouse T cell line assessed as inhibition of IFN-gamma level at 0.1 uM incubated for 48 hrs by ELISA analysis relative to control; conditions: C57BL/6, T-cell
Jurkat [9] = test: Immunosuppressive activity in PMA and PHA activated human Jurkat cells assessed as inhibition of IL-2 level at 0.1 uM incubated for 48 hrs by ELISA analysis relative to control
RAW264.7 [10] = test: Immunosuppressive activity in LPS-treated mouse RAW264.7 cells assessed as inhibition of MCP-1 level at 1 uM incubated for 24 hrs by ELISA analysis relative to control
RAW264.7 [11] = test: Immunosuppressive activity in LPS-treated mouse RAW264.7 cells assessed as inhibition of TNF-alpha level at 1 uM incubated for 24 hrs by ELISA analysis relative to control

| SMILES | inhibition at 20 µM (RAW264.7 [1]) [%] | inhibition at 20 µM [2] [%] | inhibition at 40 µM (RAW264.7 [3]) [%] | inhibition at 40 µM (RAW264.7 [4]) [%] | inhibition at 40 µM (RAW264.7 [5]) [%] | inhibition at 40 µM (Jurkat [6]) [%] | further results |
| --- | --- | --- | --- | --- | --- | --- | --- |
| Cc1ccoc1CC[C@]1(C)O[C@@]2(CCC(C)Cl)O[C@H]3C[C@H](C)[C@H]4C(=O)[C@@H]1[C@]2(O)[C@H](C)[C@H]43 (some centres not stated) | 45.6 | 61.2 | – | – | – | – | – |
| CC(=O)O[C@H]1C[C@H](C)[C@H]2C(=O)C3=C([C@H](C)[C@H]21)[C@@]1(CC[C@H](C)O1)O[C@]3(C)CC[C@@H]1OC(=O)C=C1C | – | – | 32.2 | 52.5 | 10.4 | < 10 | – |
| Cc1ccoc1CC[C@]1(C)O[C@@]2(CC(C)CCl)O[C@H]3C[C@H](C)[C@H]4C(=O)[C@@H]1[C@]2(O)[C@H](C)[C@H]43 (some centres not stated) | 38.6 | 67.4 | – | – | – | – | inhibition at 20 µM (Jurkat [7]): 33.1% |
| C[C@@H]1C[C@H]2[C@@H]3CCC4=CC(=O)C=C[C@]4(C)[C@@]3(F)[C@@H](O)C[C@]2(C)[C@@]1(O)C(=O)CO [DEXAMETHASONE] | – | – | – | – | – | – | inhibition at 0.1 µM [8]: 98.3%; inhibition at 0.1 µM (Jurkat [9]): 98.9% |
| CC(=O)O[C@H]1C[C@H](C)[C@H]2C(=O)C3=C(/C(=C/C(C)C)O[C@]3(C)CCc3occc3C)[C@H](C)[C@H]21 | – | – | 31.9 | 24.3 | < 10 | 21.1 | – |
| C/C=C/C[C@@H](C)[C@@H](O)[C@H]1C(=O)N[C@@H](CC)C(=O)N(C)CC(=O)N(C)[C@@H](CC(C)C)C(=O)N[C@@H](C(C)C)C(=O)N(C)[C@@H](CC(C)C)C(=O)N[C@@H](C)C(=O)N[C@H](C)C(=O)N(C)[C@@H](CC(C)C)C(=O)N(C)[C@@H](CC(C)C)C(=O)N(C)[C@@H](C(C)C)C(=O)N1C [CYCLOSPORINE] | – | – | – | – | – | – | inhibition at 1 µM (RAW264.7 [10]): 66%; inhibition at 1 µM (RAW264.7 [11]): 70.8% |
